How the values were obtained:
[1] = test system: adventitious roots of Bupleurum falcatum L.; experiment: Rooting test using Bupleurum falcatum L. (1); type: cell-based; settings: for Weight of Freeze-dried Roots: day 24, 0.2 g roots planted
Procedure: In order to evaluate rooting activity, adventitious roots of Bupleurum falcatum L. were employed. The adventitious roots were obtained by growing the roots of aseptic seedlings by use of IBA. The developed roots were cultured at 23° C. in a B5 liquid medium containing 5 mg/L IBA (for 3 weeks) and in the corresponding B5 liquid medium with no IBA (for 6 weeks) in an alternate manner. The inoculation amount of the roots was 5 g/L, the incubation temperature was 23° C., and subculture was performed in the dark under shaking conditions of 100 rpm. In the rooting test, adventitious roots cultured in IBA-free medium were employed. B5 medium (30-mL) was placed in a 100 mL flask, followed by planting of the roots of Bupleurum falcatum L. (0.2 g) under aseptic conditions. The present lactone derivative, prepared in 10,000 ppm, was added to the flask so as to attain the concentration of 4 ppm or 8 ppm. A sample containing a 4 ppm (final concentration) IBA solution and a sample containing a 8 ppm (final concentration) IBA solution were employed as positive controls, and a corresponding IBA-free sample was employed as a control. Respective samples were cultured under shaking at 100 rpm at 23° C. in the dark, and on day 24, the extent of rooting was checked. The roots were freeze-dried and the weight thereof was measured.

[2] = test system: adventitious roots of Bupleurum falcatum L.; experiment: Rooting test using Bupleurum falcatum L. (2); type: cell-based; settings: for Number of Lateral Roots: per unit length (2 cm) of planted root, average of 3 measurements
Procedure: In order to evaluate rooting activity, adventitious roots of Bupleurum falcatum L. were employed. The adventitious roots were obtained by growing the roots of aseptic seedlings by use of IBA. The developed roots were cultured at 23° C. in a B5 liquid medium containing 5 mg/L IBA (for 3 weeks) and in the corresponding B5 liquid medium with no IBA (for 6 weeks) in an alternate manner. The inoculation amount of the roots was 5 g/L, the incubation temperature was 23° C., and subculture was performed in the dark under shaking conditions of 100 rpm.
In the rooting test, adventitious roots cultured in IBA-free medium were employed. B5 medium (30-mL) was placed in a 100 mL flask, followed by planting of the roots of Bupleurum falcatum L. (0.2 g) under aseptic conditions. The present lactone derivative, prepared in 10,000 ppm, was added to the flask so as to attain the concentration of 4 ppm or 8 ppm. A sample containing a 4 ppm (final concentration) IBA solution and a sample containing a 8 ppm (final concentration) IBA solution were employed as positive controls, and a corresponding IBA-free sample was employed as a control. Respective samples were cultured under shaking at 100 rpm at 23° C. in the dark, and on day 24, the extent of rooting was checked. The roots were freeze-dried and the weight thereof was measured.
The general procedure of the above-described rooting test (1) was followed, except that there were employed, as positive controls, samples containing the novel auxin metabolite (Fb) disclosed in Japanese Patent Application Laid-Open (kokai) No. 10-77268, at 4 ppm and 8 ppm (both final concentration).
The number of lateral roots was determined by averaging 3 measurements of the number of the lateral roots appearing per unit length (2 cm) of the planted root.

Row | SMILES | Weight of Freeze-dried Roots ([1]; 4 ppm final concentration) | Weight of Freeze-dried Roots ([1]; 8 ppm final concentration) | rooting activity ([1]; 4 ppm and 8 ppm, compared with IBA as positive control) | rooting activity ([2]; 4 ppm and 8 ppm, compared with Fb as positive control) | Weight of Freeze-dried Roots ([2]; 4 ppm final concentration) | Number of Lateral Roots ([2]; 4 ppm final concentration) | Weight of Freeze-dried Roots ([2]; 8 ppm final concentration) | Number of Lateral Roots ([2]; 8 ppm final concentration)
1 | O=C1CCC(c2cc3ccccc3o2)O1 (stereo not drawn) [Compound 1, 5-(1-Benzofuran-2-yl)dihydro-2(3H)-furanone] | 0.37 g | 0.35 g |  |  |  |  |  | 
2 | O=C(O)CCCc1c[nH]c2ccccc12 [IBA, indolebutyric acid, reference compound] | 0.31 g | 0.37 g |  |  |  |  |  | 
3 | O=C1CCC(c2csc3ccccc23)O1 (stereo not drawn) [Compound 2, 5-(1-Benzothiophen-3-yl)dihydro-2(3H)-furanone] | 0.36 g | 0.41 g | rooting activity stronger than IBA | rooting activity stronger than Fb | 0.31 g | 30.0 | 0.45 g | 43.3

Reference: patent US20040209778A1, “Lactone derivative, and plant growth regulator and rooting agent each containing the same as active ingredient” (priority 2001, published 2004)
